Assay results published in patent US7741286B2, “Long lasting anti-angiogenic peptides” (ConjuChem Biotechnologies Inc., priority 1999, dated 2010).

Assay: Peptide stability assay: stability of K5 in human plasma (HPLC/MS of free intact peptide)
Type: in vitro ADME
Design: remaining at 4 h / remaining at 24 h: dose or concentration left out as unconfirmed
Details: for % K5 peptide in plasma: final concentration 160 mM K5
Procedure: K5 was prepared as a 1 μM solution and dissolved in 25% human serum albumin. The mixture was then incubated at 37° C. in the presence of human plasma to final concentration of […] K5. Aliquots of 100 μl were withdrawn from the plasma at 0, 4 hours and 24 hours. The 100 μl aliquots were mixed with 100 μl of blocking solution (5 vol. 5% ZnSO4/3 vol. Acetonitrile/2 vol. Methanol) in order to precipitate all proteins. The sample was centrifuged for 5 min at 10,000 g and the supernatant containing the peptide was recovered and filtered through a 0.22 μm filter. The presence of free intact K5 peptide was assayed by the HPLC/MS. The HPLC parameters for detection of K5 peptide in serum were as follows.
The HPLC method was as follows: A Vydac C18 250×4.6 mm, 5μ particle size column was utilized. The column temperature was 30° C. with a flow rate of 0.5 ml/min. Mobile Phase A was 0.1% TFA/water. Mobile Phase B was 0.1% TFA/acetonitrite. The injection volume was 10 μl.
The gradient was as follows: […]
The proteins were detected at 214, 254 and 334 nm. For mass spectral analysis, the ionization mode was API-electrospray (positive mode) at an M/Z range of 300 to 2000. The gain was 3.0, fragmentor 120 v, threshold 20, stepsize 0.1. The gas temp was 350° C. and the dying gas volume was 10.0 l/min. The Neb pressure was 24 psi and the Vcap was 3500V. The HPLC method was as follows: A Vydac C18 250×4.6 mm, 5μ particle size column was utilized. The column temperature was 30° C. with a flow rate of 0.5 ml/min. Mobile Phase A was 0.1% TFA/water. Mobile Phase B was 0.1% TFA/acetonitrite. The injection volume was 10 μl.
The proteins were detected at 214, 254 and 334 nm. For mass spectral analysis, the ionization mode was API-electrospray (positive mode) at an M/Z range of 300 to 2000. The gain was 3.0, fragmentor 120 v, threshold 20, stepsize 0.1. The gas temp was 350° C. and the drying gas volume was 10.0 l/min. The Neb pressure was 24 psi and the Vcap was 3500V.

## H-PRKLYDK-NH2 [Example K5, Pro-Arg-Lys-Leu-Tyr-Asp-Lys-NH2]
0 hrs, 37° C. in human plasma
  % K5 peptide in plasma: 100%
4 hrs, 37° C. in human plasma
  remaining at 4 h: 9%
  % K5 peptide in plasma: 9%
24 hrs, 37° C. in human plasma
  remaining at 24 h: 0%
Human plasma, 37° C.
  stability of unmodified K5 peptide in serum/plasma (in words): quite unstable
